Data as given in the supplement of paper PMC10307832.

Experiments:
Experiment in all cases: relative viability (nuclei count vs DMSO), 5 days (fraction); higher = more cells survive
[1] = compound: CNC(=O)c1ccccc1Sc1ccc2c(/C=C/c3ccccn3)n[nH]c2c1 [Axitinib] + C[C@]1(O)C[C@@H](c2nc(-c3ccc4ccc(-c5ccccc5)nc4c3)c3c(N)nccn32)C1 [Linsitinib] (partner 1 µM)
Summary of the method: (§1)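 Lung cancer cell lines in 1536-well plates got either a single drug or a fixed anchor-drug dose together with five library-drug doses (not always all listed) in √10 steps, by pin tool, on the day after seeding. Nuclei were counted after 5 days, and relative viability is the treated-to-vehicle ratio of nuclei counts. Values are medians of duplicate plates.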

[2] = compound: Nc1nc(Nc2ccc3c(c2)CC[C@@H](N2CCCC2)CC3)nn1-c1cc2c(nn1)-c1ccccc1CCC2 [Bemcentinib] + COc1cccc2cc(-c3nc([C@H]4CC[C@H](C(=O)O)CC4)n4ncnc(N)c34)[nH]c12 [OSI-027] (partner 0.5 µM)
Summary of the method: as §1

[3] = compound: Nc1nc(Nc2ccc3c(c2)CC[C@@H](N2CCCC2)CC3)nn1-c1cc2c(nn1)-c1ccccc1CCC2 [Bemcentinib] + Nc1nc2[nH]cc(CCc3ccc(C(=O)N[C@@H](CCC(=O)O)C(=O)O)cc3)c2c(=O)[nH]1 [Pemetrexed] (partner 0.2 µM)
Summary of the method: as §1

[4] = compound: Nc1nc(Nc2ccc3c(c2)CC[C@@H](N2CCCC2)CC3)nn1-c1cc2c(nn1)-c1ccccc1CCC2 [Bemcentinib] + NC(=O)Nc1cc(-c2cccc(F)c2)sc1C(=O)N[C@H]1CCCNC1 [AZD7762] (partner 0.2 µM)
Summary of the method: as §1

| Cell Line | relative viability ([1]; first compound 0.005 µM) | relative viability ([1]; first compound 0.01581 µM) | relative viability ([1]; first compound 0.05 µM) | relative viability ([1]; first compound 0.1581 µM) | relative viability ([1]; first compound 0.5 µM) | relative viability ([2]; first compound 0.04 µM) | relative viability ([2]; first compound 0.1265 µM) | relative viability ([2]; first compound 0.4 µM) | relative viability ([2]; first compound 1.265 µM) | relative viability ([2]; first compound 4 µM) | relative viability ([3]; first compound 0.04 µM) | relative viability ([3]; first compound 0.1265 µM) | relative viability ([3]; first compound 0.4 µM) | relative viability ([3]; first compound 1.265 µM) | relative viability ([3]; first compound 4 µM) | relative viability ([4]; first compound 0.04 µM) | relative viability ([4]; first compound 0.1265 µM) | relative viability ([4]; first compound 0.4 µM) | relative viability ([4]; first compound 1.265 µM) | relative viability ([4]; first compound 4 µM) |
| --- | --- | --- | --- | --- | --- | --- | --- | --- | --- | --- | --- | --- | --- | --- | --- | --- | --- | --- | --- | --- |
| SK-MES-1 | 1.12 | 1.07 | 1.08 | 1.14 | 1.22 | 0.645 | 0.595 | 0.666 | 0.799 | 0.69 | 0.958 | 1.1 | 0.987 | 1.03 | 0.967 | – | – | – | – | – |
| NCI-H1648 | – | – | – | – | – | 0.245 | 0.271 | 0.275 | 0.245 | 0.283 | 0.717 | 0.761 | 0.818 | 0.697 | 0.841 | 0.579 | 0.613 | 0.709 | 0.572 | 0.638 |
| PC-3 [JPC-3] | 0.948 | – | 0.972 | 0.944 | 0.986 | 0.765 | 0.727 | 0.829 | 0.739 | 0.752 | 1.12 | 1.32 | 1.28 | 1.07 | 1.07 | 0.799 | 0.899 | 0.828 | 0.847 | 0.812 |
| NCI-H1666 | 0.926 | 0.917 | 0.786 | 0.8 | 0.912 | 0.82 | 0.991 | 0.883 | 0.885 | 0.923 | 0.884 | 0.845 | 0.813 | 0.885 | 0.827 | 0.95 | 0.91 | 0.867 | 0.768 | 0.704 |
| IA-LM | 0.546 | 0.437 | 0.564 | 0.665 | 0.542 | – | – | – | – | – | – | – | – | – | – | – | – | – | – | – |
